Tested on: NanoLuc-PEST expressing L. mexicana axenic amastigotes
Experiment: microbe, parasite or virus in culture
Type: cell-based
Conditions: for Relative Bioluminescence (%) / viability at 2 µM / viability at 10 µM: 72 hours, relative to DMSO only control, n = 4; for viability at 2 µM / viability at 10 µM: Leishmania mexicana, read-out: Relative Bioluminescence (%)

SMILES | Relative Bioluminescence (%) (2 µM compound) | Relative Bioluminescence (%) (10 µM compound) | viability at 2 µM (2 µM compound) [%] | viability at 10 µM (10 µM compound) [%] | EC50 (hit compounds from the axenic amastigote screen, S3 Table, read-out: EC50, Axenic Amastigotes) [nM]
Nc1c2c(nc3sc4c(c13)CCCC4)CCCC2 [MMV676588] | 70.58 | 69.13 |  |  | 
COc1ccc(OC(C)C(=O)Nc2ccc(Cl)cc2C)cc1 (centres unmarked) [MMV202458] | 83.71 | 79.97 |  |  | 
Cc1cccc(Cn2ccc(NC(=O)c3ccc4c(c3)OCO4)n2)c1 [MMV676386] | 127.03 | 120.21 |  |  | 
CCOc1ccccc1C(=O)Nc1cccc(-c2nc3ncccn3c2C)c1 [MMV019790] | 85.04 | 56.75 |  |  | 
O=C(C1CCCCC1)N1CC(=O)N2CCc3ccccc3C2C1 (centres unmarked) [MMV002529, Praziquantel, reference compound] |  |  | 64.8 | 93.8 | 
CC(C)=CCC/C(C)=C\CNCCNC1C2CC3CC(C2)CC1C3 (centres unmarked) [MMV687273] | 68.48 | 81.32 |  |  | 
Cc1cc(C)n(-c2ccc(NC(=O)C3CCN(Cc4cnc(C)s4)CC3)cc2)n1 [MMV007625] | 85.10 | 76.47 |  |  | 
CCc1cc(=O)n(C)c(SC(C)C(=O)Nc2ccc(F)cc2)n1 (centres unmarked) [MMV688980] | 76.34 | 48.08 |  |  | 
Cc1cc(C(=O)Nc2cnn(Cc3ccc(Cl)cc3Cl)c2)no1 [MMV009054] | 106.08 | 100.62 |  |  | 
O=C(NCCc1ccn(-c2ccccc2)n1)C1CCCCC1 [MMV688795] | 79.12 | 86.70 |  |  | 
CCOc1ccc2cc(-c3nn(C(C)(C)C)c(N)c3C(N)=O)cnc2c1 [MMV688853] | 34.19 | 42.96 |  |  | 
O=C(NC1CCN(c2ccnc3ccccc23)C1)c1cccc(C(F)(F)F)c1 (centres unmarked) [MMV023388] | 84.10 | 76.22 |  |  | 
CN1CCCN(C(c2ccccc2)c2ccc(Cl)cc2)CC1 (centres unmarked) [MMV004168] | 64.14 | 52.89 |  |  | 
CO[C@@H](C(=O)N1Cc2[nH]nc(NC(=O)c3ccc(N4CCN(C)CC4)cc3)c2C1)c1ccccc1 [MMV676600] | 110.66 | 114.36 |  |  | 
CON=C(C(=O)OC)c1ccccc1CON=C(C)c1cccc(C(F)(F)F)c1 [MMV688754, Trifloxystrobin] |  |  | 67.6 | -1.92 | 
O=C(CN1CCOCC1)Nc1ccc2ncnc(Nc3ccc(OCc4cccc(F)c4)c(Cl)c3)c2c1 [MMV688274] | 72.23 | 7.31 |  |  | 
CN1CCN(S(=O)(=O)c2ccc(-c3ccc4c(Nc5ncc(Cl)cn5)ccnc4c3)cc2)CC1 [MMV688283] | 58.40 | 101.72 |  |  | 
CC(=O)N1CCN(c2ccc(Oc3ccc(Cl)cc3O)cc2)CC1 [MMV688330] | 97.96 | 79.07 |  |  | 
CNC(=O)C1Cc2ccccc2N1C(=O)Cc1ccc(F)cc1 (centres unmarked) [MMV188296] | 81.46 | 106.72 |  |  | 
O=C1[C@@H](Oc2ccccc2)[C@@H](c2ccc(Cl)cc2)N1CCn1cnc2c(NCc3ccccc3)ncnc21 [MMV688352] | 66.17 | 8.52 |  |  | 
CNC(=O)c1cc(S(=O)(=O)N2CCN(c3ccccn3)CC2)cs1 [MMV020136] | 108.03 | 122.06 |  |  | 
Cc1nc(-c2ccccn2)nc(N2CCC(Cc3ccccc3)C2)c1Cl (centres unmarked) [MMV659004] | 73.83 | -1.44 |  |  | 

SMILES | Relative Bioluminescence (%) (2 µM compound) | Relative Bioluminescence (%) (10 µM compound) | viability at 2 µM (2 µM compound) [%] | viability at 10 µM (10 µM compound) [%] | EC50 (hit compounds from the axenic amastigote screen, S3 Table, read-out: EC50, Axenic Amastigotes) [nM]
COCC(C)NC(=O)CSc1ncnc2sc(-c3ccccc3)cc12 (centres unmarked) [MMV676536] | 84.93 | 103.25 |  |  | 
CN1CCN(S(=O)(=O)c2ccc(-c3ccc4c(Nc5ccc6n[nH]nc6c5)ccnc4c3)cc2)CC1 [MMV687246] | 103.95 | 82.04 |  |  | 
COc1ccc(Nc2ccccc2NC(=O)c2ccc(=O)[nH]c2)cc1 [MMV676554] | 97.83 | 103.74 |  |  | 
CCCn1c(CNc2ccccc2O)nc2ccccc21 [MMV676445] | 79.21 | 77.96 |  |  | 
COc1ccc(N(CCc2cccc(C)n2)C(=O)C2CCCCC2)cc1 [MMV675996] | 63.13 | 25.83 |  |  | 
COc1ccc2nc(C)cc(OCC(=O)Nc3ccccc3OC)c2c1 [MMV687188] | 75.17 | 98.10 |  |  | 
Cn1c(=O)c2c(S(C)(=O)=O)snc2n(C)c1=O [MMV687251] | -4.37 | -0.24 |  |  | 480
CC(C)(C)c1cc(C(=O)N2CCN(c3nccnc3C#N)CC2)n(Cc2ccccc2)n1 [MMV023949] | 80.37 | 52.45 |  |  | 
CC(C)/N=c1\cc2n(-c3ccc(Cl)cc3)c3ccccc3nc-2cc1Nc1ccc(Cl)cc1 [MMV687800, Clofazimine, reference compound] |  |  | 41.1 | 37.9 | 
COc1ccc(CN2CCOc3ccc(C(C)(O)CN(C)C)cc3C2)cc1C (centres unmarked) [MMV008439] | 83.20 | 126.81 |  |  | 
CCC(Sc1nc2ccccc2o1)C(=O)Nc1nnc(C)s1 (centres unmarked) [MMV611037] | 55.30 | 44.60 |  |  | 
NS(=O)(=O)c1cncc(-c2ccc3nccc(-c4cn[nH]c4)c3n2)c1 [MMV024101] | 98.92 | 49.51 |  |  | 
c1ccc(-c2nc(NC3CCCCC3)cc(C3CC3)n2)nc1 [MMV021013] | 11.73 | 1.47 |  |  | 
CC1(C)Cc2c(c(N3CCOCC3)nc3snc(Br)c23)CO1 [MMV687794] | 97.30 | 72.05 |  |  | 
CC1CC1C(=O)NC1CCN(CC2(c3ccccc3)CCCCC2)CC1 (centres unmarked) [MMV020120] | 92.92 | 99.97 |  |  | 
CC(=O)Oc1ccccc1C(=O)Nc1ncc([N+](=O)[O-])s1 [MMV688991, Nitazoxanide, reference compound] |  |  | 71.1 | 0.38 | 
Cn1ncc2c(N3CCOCC3)nc(NCCc3c[nH]c4ccccc34)nc21 [MMV676382] | 73.92 | 64.75 |  |  | 
CS(=O)(=O)N1CCC(CCn2nc(Cc3cccc4ccccc34)c3c(N)ncnc32)CC1 [MMV688470] | 96.68 | 53.17 |  |  | 
COc1cccn2c(C(=O)N3CCCCC3)c(C(F)(F)F)nc12 [MMV1110498] | 66.34 | 77.35 |  |  | 
COc1ccccc1CNC(=O)c1cc(C2CC2)nc2c1cnn2C(C)C [MMV020517] | 97.70 | 63.10 |  |  | 
CCS(=O)(=O)N(Cc1ccco1)Cc1cc2ccc(C)cc2[nH]c1=O [MMV676398] | 115.47 | 84.49 |  |  | 
O=C(NCc1ccoc1)N1CCN(Cc2ccc3c(c2)OCO3)CC1 [MMV688553] | 90.94 | 98.31 |  |  | 

From PMC6057649, “Development of NanoLuc-PEST expressing Leishmania mexicana as a new drug discovery tool for axenic- and intramacrophage-based assays” (PLoS Neglected Tropical Diseases, 2018)
